These results are taken from patent US20060004019A1, “Steroid sparing agents and methods of using same” (priority 2004, published 2006).

A value given as a limit tells only on which side of the number the result lay.

Assay [1] concerns rat cardiac allografts. Put plainly: Rat cardiac allograft study, Allograft Study 2 (Table 20).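 On all read-outs here: lewis x Brown Norway F1 hearts grafted abdominally into male Lewis rats, palpated daily, rejection meaning complete loss of heartbeat, day 0 being surgery day.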 Conditions: for percent of surviving grafts within a group / number of surviving grafts within each group: s.c., GG5/3 3 mg/kg, compounds 30 mg/kg.
Procedure: Hearts from Lewis X Brown Norway F1 hybrids were transplanted to the abdominal great vessels of Lewis recipients using standard microvascular techniques. Both rat strains were male inbred rats, weighing 200-300 g. Food and water was available at all times except during surgical and dosing procedures. The day of transplantation was noted as day 0. […] Allograft survival in the rats was evaluated by daily palpation of the transplanted heart through the recipient's flank. Rejection was taken as the day of complete cessation of the graft's heart beat. Upon determination of rejection, the abdomen of the recipient was incised and retracted to confirm cessation of the heart beat in the transplanted heart. If cessation of the heart beat was not confirmed the abdomen was surgically closed, and the grafted heart was evaluated daily.
Cardiac allografts were established. Dosing of compounds began on day 0, prior to transplantation and continued through day +10. […] The vehicle control, 10% ethanol/corn oil, was administered s.c., every 12 hours, day 0 through day +10. The antibody, GG5/3 in 0.9% saline, was administered at 3 mg/kg, s.c., on day 0, +3, +7 and +10. All GG5/3 animals received twice daily s.c. injections of 0.9% saline, every 12 hours, throughout day 0 through day +10. The vehicle control, 0.9% saline, was administered daily, s.c., day 0 through day +10. All dosing solutions were formulated daily at a constant dose volume of 5 ml/kg. The site of injection was rotated at each injection through four possible sites: right and left fore flank, right and left rear flank. A total of 28 allografts, amongst 5 groups, were evaluated in the study. Group 1, consisted of 6 animals treated with the monoclonal antibody, GG5/3. […] Allograft survival was evaluated by daily palpation of the transplanted heart through the recipient's flank. Rejection was taken as the day of complete cessation of graft's heart beat. Upon determination of rejection, the abdomen of the recipient was incised to confirm cessation of the heart beat in the transplanted heart. If cessation of the graft's heart beat was not confirmed the abdomen was surgically closed, and the graft was evaluated daily.
The test system of assay [2] is Lewis X Brown Norway F1 hearts transplanted to Lewis recipients. The experiment in a line: Rat cardiac allograft model, Allograft Study 1 (summary across three studies). Format: in vivo. From the text: Allograft rejection is defined as the expression of an immune reaction of the recipient, against foreign antigens of the transplanted tissue. This reaction is mediated by T lymphocytes. Cell adhesion events are of critical importance in the T-cell recognition of alloantigens, the trafficking of recipient immune and inflammatory cells into the graft, and the execution of cell-mediated effector functions. […] This beneficial therapeutic effect correlates with decreased infiltration by α4β1 positive cells, deposition of CS1-FN, and endothelial staining for VCAM-1, as determined by immunohistology/RNAse protection assay.
To further evaluate the therapeutic potential of α4β1 targeted therapy in transplantation rejection, three studies were conducted in a well-defined rat cardiac transplant model. The following report summarizes the data across all three studies.

Assay [3] concerns rat cardiac allografts. Put plainly: Rat cardiac allograft study, Allograft Study 4 (Table 22).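 Further: heterotopic abdominal heart transplants from Lewis × Brown Norway F1 donors into male Lewis rats, graft beating checked daily by flank palpation, rejection defined as complete stop of heartbeat, transplant day 0.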 The following applies: 30 mg/kg s.c. every 12 h, day -2 to +10.
Procedure: Hearts from Lewis X Brown Norway F1 hybrids were transplanted to the abdominal great vessels of Lewis recipients using standard microvascular techniques. Both rat strains were male inbred rats, weighing 200-300 g. Food and water was available at all times except during surgical and dosing procedures. The day of transplantation was noted as day 0. Twelve hours following the last dose approximately 1 ml of blood was collected into lithium/heparin anti-coagulant tubes. If any graft was rejected prior to the last day of dosing, blood samples were taken 12 hours after dosing on the day that graft rejection was noted. All blood samples were centrifuged at 3000 rpm for 10 minutes and the plasma was harvested, frozen on dry ice and stored frozen at −20 C prior to analysis. Allograft survival in the rats was evaluated by daily palpation of the transplanted heart through the recipient's flank. Rejection was taken as the day of complete cessation of the graft's heart beat. Upon determination of rejection, the abdomen of the recipient was incised and retracted to confirm cessation of the heart beat in the transplanted heart. If cessation of the heart beat was not confirmed the abdomen was surgically closed, and the grafted heart was evaluated daily.
Cardiac allografts were established. Dosing of compounds began on day −2, 2 days prior to transplantation and continued through day +10. […] The vehicle control, 0.9% saline, pH adjusted to a value of 5, to match the dosing solution containing the N-[N-(3-pyridinesulfonyl)-L-3,3-dimethyl-4-thiaprolyl]-0-[1-methylpiperazin-4-ylcarbonyl]-L-tyrosine isopropyl ester, was administered via the same route, i.e. every 12 hours, day −2 through day +10. The antibody, GG5/3 in 0.9% saline, was administered at 3 mg/kg, s.c., on day 0, +3, +7 and +10. All GG5/3 animals received twice daily s.c. injections of 0.9% saline, every 12 hours, from day −2 through day +10. The vehicle control, 0.9% saline, was administered daily, s.c., day 0 through day +10. All dosing solutions were formulated daily at a constant dose volume of 5 ml/kg. The site of injection was rotated at each injection through four possible sites: right and left fore flank, right and left rear flank. A total of 21 allografts, amongst 5 groups, were evaluated in the study. […] Two animals within the 0.9% saline group received saline adjusted to a pH a value of 5. (The pH value of the N-[N-(3-pyridinesulfonyl)-L-3,3-dimethyl-4-thiaprolyl]-0-[1-methylpiperazin-4-ylcarbonyl]-L-tyrosine isopropyl ester dosing solution.) The remaining two animals received saline of pH 7. Group 2 consisted of 6 animals treated with the monoclonal antibody, GG5/3. […] Twelve hours following the last dose approximately 1 ml of blood was collected into lithium/heparin anti-coagulant tubes. If any graft was rejected prior to the last day of dosing, blood samples were taken 12 hours after dosing on the day that graft rejection was noted. All samples were centrifuged at 3000 rpm for 10 minutes and the plasma was harvested, frozen on dry ice and stored frozen at −20 C prior to dispatch for analysis. Allograft survival in the rats was evaluated by daily palpation of the transplanted heart through the recipient's flank. Rejection was taken as the day of complete cessation of graft's heart beat. Upon determination of rejection, the abdomen of the recipient was incised to confirm cessation of the heart beat in the transplanted heart. If cessation of the heart beat was not confirmed the abdomen was surgically closed, and the graft was evaluated daily.
The test system of assay [4] is rat cardiac allografts. The experiment in a line: Rat cardiac allograft study, Allograft Study 5, dose response (Table 23). Format: in vivo.

As for `CC(C)OC(=O)[C@H](Cc1ccc(OC(=O)N(C)C)cc1)NC(=O)[C@H]1N(S(=O)(=O)c2cnn(C)c2)CSC1(C)C`, the “percent of surviving grafts within a group” value (“percent” for short) in assay [1] (Day 0), in assay [1] (Day 1), in assay [1] (Day 2), in assay [1] (Day 3), in assay [1] (Day 4) and in assay [1] (Day 5) was 100% throughout. Further, the “percent” value in assay [1] (Day 6) amounted to 100%; in assay [1] (Day 7), 100%; in assay [1] (Day 8) it was 100%; in assay [1] (Day 9) it was 100%; in assay [1] (Day 10), 83%; in assay [1] (Day 11), 50%. Also, the “percent” value is reported as 50% in assay [1] (Day 12); 33% in assay [1] (Day 13); 16% in assay [1] (Day 14); 16% in assay [1] (Day 15); 0% in assay [1] (Day 16).

Consider `CC(C)OC(=O)[C@H](Cc1ccc(OC(=O)N(C)C)cc1)NC(=O)[C@H]1N(S(=O)(=O)c2cccnc2)CSC1(C)C` [listing 1 of 2 here], for which the “number of surviving grafts within each group” value (from here on “number”) in assay [1] (Day 0), in assay [1] (Day 1), in assay [1] (Day 2), in assay [1] (Day 3), in assay [1] (Day 4) and in assay [1] (Day 5) was 6 in each case. Besides, the “number” value is 6 in assay [1] (Day 6); 6 in assay [1] (Day 7); 4 in assay [1] (Day 8); 2 in assay [1] (Day 9); 2 in assay [1] (Day 10); 1 in assay [1] (Day 11). Moreover, the “number” value in assay [1] (Day 12), in assay [1] (Day 13), in assay [1] (Day 14), in assay [1] (Day 15) and in assay [1] (Day 16) was 0 throughout.

On to `CC(C)OC(=O)[C@H](Cc1ccc(OC(=O)N(C)C)cc1)NC(=O)[C@H]1N(S(=O)(=O)c2cccnc2)CSC1(C)C` [listing 2 of 2 here], for which the “percent” value in assay [1] (Day 0), in assay [1] (Day 1), in assay [1] (Day 2), in assay [1] (Day 3), in assay [1] (Day 4) and in assay [1] (Day 5) was 100% in each case. The “percent” value in assay [1] (Day 6) was determined as 100%; in assay [1] (Day 7) it was 100%; in assay [1] (Day 8), 66%; in assay [1] (Day 9), 50%; in assay [1] (Day 10) it was 50%; in assay [1] (Day 11) it was 16%. Also, the “percent” value in assay [1] (Day 12), in assay [1] (Day 13), in assay [1] (Day 14), in assay [1] (Day 15) and in assay [1] (Day 16) was 0% each time.

On to `CC(C)OC(=O)[C@H](Cc1ccc(OC(=O)N(C)C)cc1)NC(=O)[C@H]1N(S(=O)(=O)c2cccnc2)CSC1(C)C` [Example 173], for which the “day by which all grafts rejected” value in assay [1] (30 mg/kg s.c. every 12 h, day 0 through day +10) was at most 12 days. In addition, the “graft survival (in words)” value in assay [1] (compounds 30 mg/kg s.c. every 12 h, GG5/3 3 mg/kg s.c. day 0, +3, +7, +10) was “prolonged graft survival for a short period”.

As to `CC(C)OC(=O)[C@H](Cc1ccc(OC(=O)N2CCN(C)CC2)cc1)NC(=O)[C@H]1N(S(=O)(=O)c2cccnc2)CSC1(C)C` [Example 379], in assay [2], the “graft survival rate on day +14” value is 66% and the “graft survival rate out to day +30” value came to 33%. Further, the “absolute cardiac allograft survival (last day of graft survival)” value in assay [2] (vehicle day +9) is recorded as 41 day. In assay [3], the “allograft acceptance compared with GG5/3” value is “significantly prolong allograft acceptance beyond the level obtain with GG5/3”, the “graft survival rate on day +19” value is listed as “Fifty percent or greater” and the “longest surviving graft (one graft)” value came out at 41 days. In assay [4] (3 mg/kg s.c. every 12 h), the day rejection begins is 7 days, the “day rejection is completed” value was at most 10 days and the “protection against graft rejection” value is on record as “did not provide any protection against graft rejection”. Besides, the day rejection begins in assay [4] (10 mg/kg s.c. every 12 h) was 8 days. The same compound registered a graft survival rate in assay [4] (10 mg/kg s.c. every 12 h, by day +22) of 20%. Besides, in assay [4] (30 mg/kg s.c. every 12 h), the “graft acceptance (in words)” value is on record as “prolonged graft acceptance”. This compound also yielded a graft survival rate in assay [4] (30 mg/kg s.c. every 12 h, day +22, study still in progress) of 83%.
